This is an account of results in ChEMBL document CHEMBL1201862, “PubChem BioAssay data set” (2004).

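Test compounds were applied to cells in 96-well plates for 48 hours at 5 doses. The concentration for 50% growth inhibition is given as GI50.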 The source made the active and inactive calls. No stated cut-off is given here; in the data, active = GI50 up to about 1.1 µM and inactive = higher.

Some test systems named below: 786-0; SN12C; SNB-75; A498; OVCAR-4; HCT-15; NCI-H226; M14; NCI-H23; TK-10; OVCAR-5; CCRF-CEM; NCI-H522; SF-539; MOLT-4.
What all share (test): NCI tumour cell line growth inhibition, 48 h

As to `CCOc1ccccc1N1C(=O)C(=O)C(c2nc3ccccc3o2)/C(=N\N)C1=O` (centres undefined), the GI50 with 786-0 is > 100 µM (inactive); with SN12C it was > 100 µM (inactive); in the test on SNB-75 it was 27.7 µM (inactive); in the test with A498 it was > 100 µM (inactive); in the test with OVCAR-4, 27.1 µM (inactive); in the test with HCT-15, over 100 µM. Besides, the GI50 is > 100 µM (inactive) in the test on NCI-H226; > 100 µM (inactive) in the test with M14; > 100 µM (inactive) in the test with NCI-H23; 56.5 µM (inactive) in the test on TK-10; > 100 µM (inactive) with OVCAR-5; > 100 µM (inactive) with CCRF-CEM. Further, the GI50 in the test on NCI-H522 and in the test with SF-539 was > 100 µM (inactive) each time.
As to `O=C(O)c1ccc(C2COc3ccc(Cl)cc3C2)cc1` (centres undefined), the GI50 in the test with 786-0 is > 100 µM (inactive); in the test on SN12C, > 100 µM (inactive); with SNB-75, 31.6 µM (inactive); in the test with A498 it was > 100 µM (inactive); in the test on HCT-15, over 100 µM; with NCI-H226, > 100 µM (inactive). For the same compound, the GI50 in the test on MOLT-4, in the test with M14, with NCI-H23, in the test with TK-10, in the test on OVCAR-5 and in the test on CCRF-CEM was > 100 µM (inactive) each time. The GI50 with NCI-H522 and with SF-539 was > 100 µM (inactive) each time.
With `CCOP1(=O)C=C(C)C(Cl)=C(C)C1` (centres undefined), the GI50 in the test on 786-0 was 28.3 µM (inactive); in the test on SN12C it was 21 µM (inactive); with SNB-75, 15.4 µM (inactive); in the test on OVCAR-4, 24.2 µM (inactive); in the test with HCT-15, 23.3 µM; in the test with NCI-H226, 21.4 µM (inactive). Also, the GI50 was 20.4 µM (inactive) in the test with MOLT-4; 17.1 µM (inactive) in the test with M14; 22.9 µM (inactive) with NCI-H23; 41.4 µM (inactive) with TK-10; 43.9 µM (inactive) with OVCAR-5; 17.6 µM (inactive) with CCRF-CEM. Besides, the GI50 with NCI-H522 was 13.9 µM (inactive); in the test with SF-539 it was 23.1 µM (inactive).
Turning to `CCC1(c2ccncc2)CCC(=O)NC1=O` (centres undefined) [ROGLETIMIDE], the GI50 is > 100 µM (inactive) in the test with 786-0; > 100 µM (inactive) with SN12C; > 100 µM (inactive) in the test with SNB-75; > 100 µM (inactive) with A498; > 100 µM (inactive) in the test with OVCAR-4; over 100 µM with HCT-15. The GI50 in the test with NCI-H226, in the test on MOLT-4, in the test with M14, with NCI-H23, with TK-10 and with OVCAR-5 was > 100 µM (inactive) in each case. The GI50 in the test with CCRF-CEM and in the test on SF-539 was > 100 µM (inactive) throughout.
For `N=C(N)SCc1cn2ccccc2n1`, the GI50 in the test with 786-0 was > 100 µM (inactive); with SN12C, > 100 µM (inactive); with SNB-75, > 100 µM (inactive); in the test with OVCAR-4, > 100 µM (inactive); in the test on HCT-15 it was over 100 µM; in the test with NCI-H226 it was > 100 µM (inactive). For the same compound, the GI50 in the test on MOLT-4, in the test with M14, in the test with NCI-H23, in the test with TK-10, in the test on OVCAR-5 and in the test on CCRF-CEM was > 100 µM (inactive) throughout. The GI50 in the test with NCI-H522 and in the test with SF-539 was > 100 µM (inactive) in each case.
Turning to `Cc1ccccc1NC(=O)C1C(=O)N(c2ccccc2C)C(=O)/C1=N\N` (centres undefined), the GI50 in the test with 786-0 is > 100 µM (inactive); with SN12C, > 100 µM (inactive); in the test on SNB-75, > 100 µM (inactive); with A498, > 100 µM (inactive); in the test with OVCAR-4 it was > 100 µM (inactive); in the test on HCT-15, over 100 µM. In addition, the GI50 with NCI-H226, with MOLT-4, with M14, with NCI-H23, in the test on OVCAR-5 and in the test with CCRF-CEM was > 100 µM (inactive) in each case. Further, the GI50 with NCI-H522 and with SF-539 was > 100 µM (inactive) in each case.
`O=C1/C(=C/c2ccc(Br)cc2)CCC/C1=C\c1ccc(Br)cc1`: the GI50 was 11.9 µM (inactive) in the test with 786-0; 19.7 µM (inactive) with SN12C; 20.6 µM (inactive) with SNB-75; 5.32 µM (inactive) in the test with A498; 10.1 µM (inactive) in the test on OVCAR-4; 5.13 µM in the test on HCT-15. Moreover, the GI50 was 7.11 µM (inactive) in the test on MOLT-4; 3.03 µM (inactive) in the test with M14; 5.69 µM (inactive) in the test on NCI-H23; 27.5 µM (inactive) in the test on TK-10; 5.11 µM (inactive) in the test with CCRF-CEM; 13.6 µM (inactive) in the test on NCI-H522. Further, the GI50 with SF-539 is 16 µM (inactive).
Take `CCCCCCCCCCCCCCCC(=O)OCCOCCOCCOCc1ccccc1`: the GI50 in the test with 786-0 was > 100 µM (inactive); in the test with SN12C, > 100 µM (inactive); in the test with SNB-75, 65.3 µM (inactive); in the test on A498, > 100 µM (inactive); in the test on OVCAR-4, > 100 µM (inactive); in the test on NCI-H226 it was > 100 µM (inactive). Also, the GI50 with NCI-H23, in the test on TK-10, in the test on OVCAR-5 and with SF-539 was > 100 µM (inactive) throughout.
As for `COc1ccc2cc1Oc1ccc(cc1)CC1c3cc(c(OC)cc3CCN1C)Oc1c3c(cc4c1C(C2)N(C)CC4)OCO3` (centres undefined), the GI50 is 11.5 µM (inactive) in the test on 786-0; 11.4 µM (inactive) with SN12C; 3.74 µM (inactive) in the test with SNB-75; 4.58 µM (inactive) in the test on OVCAR-4; 4.42 µM in the test with HCT-15; 2.35 µM (inactive) in the test on NCI-H226. Besides, the GI50 with MOLT-4 was 5.52 µM (inactive); in the test on M14, 1.87 µM (inactive); with NCI-H23, 17 µM (inactive); in the test with TK-10 it was 2.19 µM (inactive); in the test on OVCAR-5 it was 18.2 µM (inactive); in the test with CCRF-CEM, 13.2 µM (inactive). The GI50 was 7.16 µM (inactive) in the test on NCI-H522 and 2.34 µM (inactive) with SF-539.
`CCC(=O)N1C(=S)SC[C@H]1C(=O)OC`: the GI50 with 786-0, in the test with SN12C, with SNB-75, with A498, in the test on OVCAR-4 and with NCI-H226 was > 100 µM (inactive) each time. Also, the GI50 in the test with MOLT-4 was > 100 µM (inactive); with M14 it was > 100 µM (inactive); with NCI-H23, > 100 µM (inactive); with TK-10, > 100 µM (inactive); with OVCAR-5, > 100 µM (inactive); with CCRF-CEM it was 69.2 µM (inactive). The GI50 in the test on NCI-H522 and in the test on SF-539 was > 100 µM (inactive) throughout.
As for `CC1(C=O)C(=O)CCC2(C)C3CC(=O)OC3CCC12` (centres undefined), the GI50 in the test with 786-0 was > 100 µM (inactive); with SN12C it was > 100 µM (inactive); with SNB-75, > 100 µM (inactive); with OVCAR-4, > 100 µM (inactive); in the test with HCT-15 it was over 100 µM; in the test with MOLT-4, > 100 µM (inactive). The GI50 in the test with M14, in the test with NCI-H23, in the test with TK-10, in the test on OVCAR-5, in the test with CCRF-CEM and in the test on NCI-H522 was > 100 µM (inactive) throughout. Also, in the test on SF-539, the GI50 is > 100 µM (inactive).
Take `O=C(CCn1[nH]c(=O)c(Cl)c(Cl)c1=O)NOCCCc1ccccc1`: the GI50 was > 100 µM (inactive) in the test with 786-0; > 100 µM (inactive) in the test on SN12C; > 100 µM (inactive) with SNB-75; > 100 µM (inactive) with A498; > 100 µM (inactive) in the test on OVCAR-4; over 100 µM with HCT-15. In addition, the GI50 in the test with NCI-H226, with MOLT-4, in the test on M14, in the test with NCI-H23, in the test with TK-10 and with OVCAR-5 was > 100 µM (inactive) each time. For the same compound, the GI50 with CCRF-CEM and with SF-539 was > 100 µM (inactive) in each case.
For the compound `O=C1c2cccc3c(Cl)ccc(c23)C(=O)N1CCCN1CCN(CCCN2C(=O)c3cccc4c(Cl)ccc(c34)C2=O)CC1`, the GI50 is 64.4 µM (inactive) with 786-0; > 100 µM (inactive) in the test with SN12C; 40.2 µM (inactive) in the test with SNB-75; > 100 µM (inactive) in the test with A498; > 100 µM (inactive) in the test with OVCAR-4; over 100 µM in the test with HCT-15. For the same compound, the GI50 in the test on NCI-H226 was > 100 µM (inactive); in the test on MOLT-4, 57.3 µM (inactive); in the test with M14, > 100 µM (inactive); with NCI-H23 it was 97.1 µM (inactive); in the test on TK-10 it was > 100 µM (inactive); with OVCAR-5, > 100 µM (inactive). For the same compound, the GI50 in the test with CCRF-CEM and in the test on SF-539 was > 100 µM (inactive) in each case.
Consider `NCCCCCCNCc1cccc2ccccc12`, for which the GI50 with 786-0 is > 100 µM (inactive); in the test on SN12C, > 100 µM (inactive); in the test on SNB-75, > 100 µM (inactive); in the test on OVCAR-4 it was > 100 µM (inactive); in the test on HCT-15, 74.6 µM; with NCI-H226, > 100 µM (inactive). For the same compound, the GI50 was 40.8 µM (inactive) in the test on MOLT-4; 18.4 µM (inactive) in the test on M14; > 100 µM (inactive) with NCI-H23; > 100 µM (inactive) with TK-10; > 100 µM (inactive) in the test with OVCAR-5; > 10 µM (inactive) in the test with CCRF-CEM. Also, the GI50 is 83.6 µM (inactive) with NCI-H522 and 40.6 µM (inactive) with SF-539.
Take `Cc1ccc(SCC(=O)C2=C(O)CCCC2=O)cc1`: the GI50 with 786-0 was > 100 µM (inactive); in the test with SN12C, > 100 µM (inactive); with SNB-75, > 100 µM (inactive); with OVCAR-4, > 100 µM (inactive); in the test on HCT-15, over 100 µM; in the test on NCI-H226 it was > 100 µM (inactive). In addition, the GI50 in the test with MOLT-4 is > 100 µM (inactive); in the test with M14 it was > 100 µM (inactive); in the test with NCI-H23, > 100 µM (inactive); with TK-10, > 100 µM (inactive); with OVCAR-5 it was > 100 µM (inactive); with CCRF-CEM it was 40.6 µM (inactive). The GI50 in the test on NCI-H522 and with SF-539 was > 100 µM (inactive) each time.
